Experimental data: publication PMC6934184, “Selective DNA-PKcs inhibition extends the therapeutic index of localized radiotherapy and chemotherapy” (The Journal of Clinical Investigation, 2019)

Target: T1, EPHA7 (Homo sapiens, UniProt Q15375)
T1 construct: purchased Thermo Fisher Scientific (Life Technologies) SelectScreen
Experiment: SelectScreen LanthaScreen
Assay type: binding
Conditions: read-out: % displacement
Outline: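 Percent values come from Thermo SelectScreen profiling of NU5455, combining activity and binding assays. CSF1R was run in Z'LYTE format at Km app ATP, and CAMK1 in Adapta format with ATP listed at 10.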

T1 sequence (Q15375 28-998): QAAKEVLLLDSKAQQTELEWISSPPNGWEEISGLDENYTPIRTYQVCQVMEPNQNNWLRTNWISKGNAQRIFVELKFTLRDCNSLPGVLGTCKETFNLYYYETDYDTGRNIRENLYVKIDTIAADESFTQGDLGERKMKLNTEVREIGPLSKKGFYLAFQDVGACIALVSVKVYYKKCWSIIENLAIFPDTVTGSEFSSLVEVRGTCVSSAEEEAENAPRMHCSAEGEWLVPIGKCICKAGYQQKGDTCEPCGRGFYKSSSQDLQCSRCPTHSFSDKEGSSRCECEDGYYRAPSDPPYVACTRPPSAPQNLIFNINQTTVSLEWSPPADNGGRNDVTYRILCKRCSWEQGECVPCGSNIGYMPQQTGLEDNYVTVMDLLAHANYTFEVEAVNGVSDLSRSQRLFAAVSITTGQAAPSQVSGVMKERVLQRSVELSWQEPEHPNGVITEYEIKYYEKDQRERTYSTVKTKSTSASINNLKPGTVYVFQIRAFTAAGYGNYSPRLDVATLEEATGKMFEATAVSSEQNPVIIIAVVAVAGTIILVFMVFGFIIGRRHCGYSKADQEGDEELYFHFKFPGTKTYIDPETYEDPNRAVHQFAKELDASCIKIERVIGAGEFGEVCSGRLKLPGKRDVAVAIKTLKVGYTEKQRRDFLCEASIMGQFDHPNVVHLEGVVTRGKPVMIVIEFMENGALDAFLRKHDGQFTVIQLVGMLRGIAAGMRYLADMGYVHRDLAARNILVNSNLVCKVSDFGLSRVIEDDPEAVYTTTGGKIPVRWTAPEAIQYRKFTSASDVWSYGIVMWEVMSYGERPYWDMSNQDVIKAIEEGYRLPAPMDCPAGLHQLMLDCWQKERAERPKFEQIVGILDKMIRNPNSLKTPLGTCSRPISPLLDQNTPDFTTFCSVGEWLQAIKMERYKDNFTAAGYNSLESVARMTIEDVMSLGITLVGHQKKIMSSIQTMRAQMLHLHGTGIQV

In the case of `CN(C(=O)CN1CCOCC1)c1ccc2sc3c(-c4cccc5c(=O)cc(N6CC7CCC(C6)O7)oc45)cccc3c2c1` [NU5455], the inhibition at 1 µM is reported as 1.2%.
